Reference: ChEMBL document CHEMBL4507319 (2021)

What was measured:
Settings in all cases: Compound concentration 1.0 uM
[1] = target: T1, Serine/threonine-protein kinase BRSK1 (Homo sapiens) (UniProt Q8TDC3); experiment: BrSK1(h) Eurofins kinase panel
T1 sequence (whole entry): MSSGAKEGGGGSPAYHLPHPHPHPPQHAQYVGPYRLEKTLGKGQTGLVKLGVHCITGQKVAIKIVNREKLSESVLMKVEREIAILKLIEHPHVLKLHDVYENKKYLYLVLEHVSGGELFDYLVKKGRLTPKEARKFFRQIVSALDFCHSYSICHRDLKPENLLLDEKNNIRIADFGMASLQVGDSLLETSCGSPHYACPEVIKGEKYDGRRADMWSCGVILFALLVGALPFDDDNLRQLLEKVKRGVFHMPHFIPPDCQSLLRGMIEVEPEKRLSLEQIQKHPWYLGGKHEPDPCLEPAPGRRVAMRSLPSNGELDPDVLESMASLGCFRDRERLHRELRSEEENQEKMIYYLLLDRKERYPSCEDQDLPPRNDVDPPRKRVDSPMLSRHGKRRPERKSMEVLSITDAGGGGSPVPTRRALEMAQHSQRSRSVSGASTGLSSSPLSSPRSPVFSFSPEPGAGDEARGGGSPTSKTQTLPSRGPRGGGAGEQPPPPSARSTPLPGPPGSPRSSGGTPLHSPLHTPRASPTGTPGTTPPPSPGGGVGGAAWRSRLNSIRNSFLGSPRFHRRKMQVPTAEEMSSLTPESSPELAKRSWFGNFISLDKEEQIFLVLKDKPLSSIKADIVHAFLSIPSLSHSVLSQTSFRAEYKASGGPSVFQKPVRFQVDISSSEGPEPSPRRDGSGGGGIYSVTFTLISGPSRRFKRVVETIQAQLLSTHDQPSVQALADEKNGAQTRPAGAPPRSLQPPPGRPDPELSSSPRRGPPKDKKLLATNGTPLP

[2] = target: Insulin-like growth factor 1 receptor (Homo sapiens) (UniProt P08069); experiment: IGF-1R(h) Eurofins kinase panel
Sequence of Insulin-like growth factor 1 receptor (Homo sapiens) (P08069 31-736 limits assumed): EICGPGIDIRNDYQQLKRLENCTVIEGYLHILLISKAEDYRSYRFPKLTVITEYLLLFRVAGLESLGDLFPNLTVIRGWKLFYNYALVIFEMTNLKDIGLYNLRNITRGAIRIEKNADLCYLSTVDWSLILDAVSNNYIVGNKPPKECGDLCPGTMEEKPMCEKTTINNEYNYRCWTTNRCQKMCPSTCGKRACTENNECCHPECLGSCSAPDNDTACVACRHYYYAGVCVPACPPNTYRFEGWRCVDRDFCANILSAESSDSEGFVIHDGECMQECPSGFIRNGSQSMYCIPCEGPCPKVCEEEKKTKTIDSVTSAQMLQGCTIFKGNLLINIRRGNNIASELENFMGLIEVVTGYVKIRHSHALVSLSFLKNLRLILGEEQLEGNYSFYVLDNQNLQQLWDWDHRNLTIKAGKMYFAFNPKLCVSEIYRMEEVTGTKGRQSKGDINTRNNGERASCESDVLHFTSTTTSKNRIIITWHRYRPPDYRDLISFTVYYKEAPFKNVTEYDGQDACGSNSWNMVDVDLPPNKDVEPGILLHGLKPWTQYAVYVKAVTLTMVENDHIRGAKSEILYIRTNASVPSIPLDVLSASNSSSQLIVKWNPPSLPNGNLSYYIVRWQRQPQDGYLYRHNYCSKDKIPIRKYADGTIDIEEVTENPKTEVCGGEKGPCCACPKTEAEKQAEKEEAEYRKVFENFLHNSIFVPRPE
Sequence of Insulin-like growth factor 1 receptor (Homo sapiens) (P08069 741-1367 limits assumed): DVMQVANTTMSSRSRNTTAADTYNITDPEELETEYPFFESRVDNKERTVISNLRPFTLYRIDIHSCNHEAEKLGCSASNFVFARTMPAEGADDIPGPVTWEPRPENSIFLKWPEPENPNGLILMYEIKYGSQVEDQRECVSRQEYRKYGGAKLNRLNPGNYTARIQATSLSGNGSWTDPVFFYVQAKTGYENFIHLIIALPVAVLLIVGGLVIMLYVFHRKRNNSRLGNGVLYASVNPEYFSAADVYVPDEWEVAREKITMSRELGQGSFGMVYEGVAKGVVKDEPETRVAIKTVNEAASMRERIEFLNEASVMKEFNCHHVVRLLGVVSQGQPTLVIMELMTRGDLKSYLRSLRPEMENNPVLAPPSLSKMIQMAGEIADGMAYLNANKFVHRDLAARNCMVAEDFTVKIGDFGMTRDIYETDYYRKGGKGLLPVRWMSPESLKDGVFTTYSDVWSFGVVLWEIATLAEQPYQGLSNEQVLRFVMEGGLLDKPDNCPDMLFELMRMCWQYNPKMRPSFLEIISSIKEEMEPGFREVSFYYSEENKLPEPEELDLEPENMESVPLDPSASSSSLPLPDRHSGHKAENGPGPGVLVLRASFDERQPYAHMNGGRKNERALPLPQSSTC

[3] = target: Protein-tyrosine kinase 2-beta (Homo sapiens) (UniProt Q14289); experiment: Pyk2(h) Eurofins kinase panel
Sequence of Protein-tyrosine kinase 2-beta (Homo sapiens) (Q14289 whole entry, looked up): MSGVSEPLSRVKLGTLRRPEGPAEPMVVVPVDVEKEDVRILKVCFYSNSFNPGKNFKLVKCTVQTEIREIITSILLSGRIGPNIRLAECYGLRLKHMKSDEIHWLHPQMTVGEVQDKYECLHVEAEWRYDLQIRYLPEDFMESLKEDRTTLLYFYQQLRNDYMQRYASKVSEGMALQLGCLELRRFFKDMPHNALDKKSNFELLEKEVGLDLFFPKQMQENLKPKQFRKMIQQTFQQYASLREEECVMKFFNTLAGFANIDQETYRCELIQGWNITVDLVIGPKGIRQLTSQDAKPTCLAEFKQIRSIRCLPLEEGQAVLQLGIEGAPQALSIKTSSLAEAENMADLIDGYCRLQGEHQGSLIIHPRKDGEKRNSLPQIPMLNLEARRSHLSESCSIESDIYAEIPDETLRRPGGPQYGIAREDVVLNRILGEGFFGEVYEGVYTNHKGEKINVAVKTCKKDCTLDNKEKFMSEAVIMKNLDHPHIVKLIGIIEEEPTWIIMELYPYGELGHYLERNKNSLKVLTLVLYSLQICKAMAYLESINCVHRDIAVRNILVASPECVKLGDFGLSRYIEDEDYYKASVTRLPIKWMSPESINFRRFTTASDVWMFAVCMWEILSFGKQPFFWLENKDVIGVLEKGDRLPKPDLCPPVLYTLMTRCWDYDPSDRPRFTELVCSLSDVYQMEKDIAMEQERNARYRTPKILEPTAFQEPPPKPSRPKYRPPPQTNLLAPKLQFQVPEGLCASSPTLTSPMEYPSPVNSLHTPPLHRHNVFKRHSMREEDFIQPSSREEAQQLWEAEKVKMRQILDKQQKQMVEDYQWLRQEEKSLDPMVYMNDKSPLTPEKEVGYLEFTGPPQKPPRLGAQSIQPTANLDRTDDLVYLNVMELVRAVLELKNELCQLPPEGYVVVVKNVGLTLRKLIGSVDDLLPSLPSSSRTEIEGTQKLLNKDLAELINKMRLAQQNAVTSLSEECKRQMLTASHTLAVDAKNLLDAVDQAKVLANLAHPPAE

[4] = target: T2, Serine/threonine-protein kinase Sgk1 (Homo sapiens) (UniProt O00141); experiment: SGK(h) Eurofins kinase panel
T2 sequence (whole entry): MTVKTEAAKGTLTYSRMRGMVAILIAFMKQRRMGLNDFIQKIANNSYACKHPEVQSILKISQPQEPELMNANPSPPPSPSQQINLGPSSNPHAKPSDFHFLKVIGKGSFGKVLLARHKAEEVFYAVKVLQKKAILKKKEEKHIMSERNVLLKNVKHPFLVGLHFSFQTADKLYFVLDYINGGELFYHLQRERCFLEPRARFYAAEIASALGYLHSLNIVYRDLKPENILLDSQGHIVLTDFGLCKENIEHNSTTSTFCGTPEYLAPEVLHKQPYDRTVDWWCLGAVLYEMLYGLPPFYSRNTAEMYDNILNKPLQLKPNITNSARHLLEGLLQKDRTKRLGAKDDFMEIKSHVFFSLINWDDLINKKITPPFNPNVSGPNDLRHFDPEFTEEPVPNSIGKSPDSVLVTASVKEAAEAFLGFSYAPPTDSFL

[5] = target: T3, Phosphatidylinositol 3-kinase C2 domain-containing subunit gamma (Homo sapiens) (UniProt O75747); experiment: PI3KC2g(h) Eurofins kinase panel
T3 sequence (whole entry): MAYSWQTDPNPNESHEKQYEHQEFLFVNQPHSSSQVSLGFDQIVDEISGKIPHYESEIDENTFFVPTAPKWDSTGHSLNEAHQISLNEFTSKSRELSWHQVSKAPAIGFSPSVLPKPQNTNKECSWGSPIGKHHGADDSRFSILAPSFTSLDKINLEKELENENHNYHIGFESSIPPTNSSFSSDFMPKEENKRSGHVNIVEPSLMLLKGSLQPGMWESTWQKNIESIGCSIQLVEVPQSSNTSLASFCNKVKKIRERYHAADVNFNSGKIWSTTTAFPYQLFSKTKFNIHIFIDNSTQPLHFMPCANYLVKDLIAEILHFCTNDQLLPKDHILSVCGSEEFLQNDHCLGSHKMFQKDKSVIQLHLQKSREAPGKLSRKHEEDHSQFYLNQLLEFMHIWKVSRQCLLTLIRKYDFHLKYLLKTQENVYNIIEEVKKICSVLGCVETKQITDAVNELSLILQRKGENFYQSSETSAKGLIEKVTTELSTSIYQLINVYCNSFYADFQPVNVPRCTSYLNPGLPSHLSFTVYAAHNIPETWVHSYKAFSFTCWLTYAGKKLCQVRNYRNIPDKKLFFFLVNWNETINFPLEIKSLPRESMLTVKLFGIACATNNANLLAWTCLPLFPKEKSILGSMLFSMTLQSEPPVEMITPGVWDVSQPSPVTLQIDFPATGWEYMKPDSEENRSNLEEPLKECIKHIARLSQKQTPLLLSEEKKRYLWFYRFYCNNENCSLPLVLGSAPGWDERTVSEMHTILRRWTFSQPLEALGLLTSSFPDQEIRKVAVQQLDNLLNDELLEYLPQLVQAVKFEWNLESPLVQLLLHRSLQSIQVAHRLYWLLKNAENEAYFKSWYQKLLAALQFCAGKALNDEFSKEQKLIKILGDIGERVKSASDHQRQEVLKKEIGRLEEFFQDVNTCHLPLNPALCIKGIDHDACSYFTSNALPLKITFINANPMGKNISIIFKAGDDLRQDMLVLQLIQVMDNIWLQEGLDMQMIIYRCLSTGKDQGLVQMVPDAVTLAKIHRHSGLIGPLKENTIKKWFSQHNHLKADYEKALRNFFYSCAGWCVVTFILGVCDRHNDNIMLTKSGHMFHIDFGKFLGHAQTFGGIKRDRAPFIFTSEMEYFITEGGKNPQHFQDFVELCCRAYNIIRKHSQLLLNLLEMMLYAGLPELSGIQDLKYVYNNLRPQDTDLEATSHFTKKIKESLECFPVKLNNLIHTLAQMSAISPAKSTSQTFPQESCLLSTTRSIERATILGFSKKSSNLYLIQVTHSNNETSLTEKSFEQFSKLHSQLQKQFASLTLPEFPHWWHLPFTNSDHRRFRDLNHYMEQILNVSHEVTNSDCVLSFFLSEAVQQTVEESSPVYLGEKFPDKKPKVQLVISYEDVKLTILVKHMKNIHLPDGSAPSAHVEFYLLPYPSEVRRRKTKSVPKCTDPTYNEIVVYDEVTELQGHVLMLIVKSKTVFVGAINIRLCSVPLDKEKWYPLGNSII

Measured: % residual kinase activity

CCc1ccccc1C(=O)Nc1n[nH]c2c(C)c(F)c(C3C(C#N)=C(C)N(C)C(C)=C3C#N)cc12 [BAY-3827]
inactive: [1] 64% | [2] 110% | [3] 76% | [4] 79% | [5] 100%
